Results on 24 molecules are retold here after US20230399312A1, “SUBSTITUTED PYRIMIDINES AND METHODS OF USE” (THERAVANCE BIOPHARMA R&D IP, LLC, priority 2020, published 2023).

For assay [1], the system named is TGF-β-stimulated SMAD3 phosphorylation in BEAS-2B cells. Description: Cellular ALK5 potency assay, inhibition of TGF-β stimulated pSMAD3 formation in BEAS-2B cells. It counts as cell-based. The note with it: Homo sapiens, pSMAD3, TGF-β 10 ng/mL, read-out: BEAS2B pIC50 (converted). The gist of the method: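 Potency is expressed as pIC50, based on dose-dependent reduction of TGF-β-induced pSMAD3 AlphaLISA signal relative to stimulated cells without compound. BEAS-2B cells received compound 1 h before a 30 min, 10 ng/mL TGF-β challenge.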

Assay [2] concerns the target T1, recombinant human ALK5 (TGF-βR1) protein (Homo sapiens, UniProt P36897).
T1 construct: purchased Life Technologies PR9075A
T1 sequence (P36897 34-503): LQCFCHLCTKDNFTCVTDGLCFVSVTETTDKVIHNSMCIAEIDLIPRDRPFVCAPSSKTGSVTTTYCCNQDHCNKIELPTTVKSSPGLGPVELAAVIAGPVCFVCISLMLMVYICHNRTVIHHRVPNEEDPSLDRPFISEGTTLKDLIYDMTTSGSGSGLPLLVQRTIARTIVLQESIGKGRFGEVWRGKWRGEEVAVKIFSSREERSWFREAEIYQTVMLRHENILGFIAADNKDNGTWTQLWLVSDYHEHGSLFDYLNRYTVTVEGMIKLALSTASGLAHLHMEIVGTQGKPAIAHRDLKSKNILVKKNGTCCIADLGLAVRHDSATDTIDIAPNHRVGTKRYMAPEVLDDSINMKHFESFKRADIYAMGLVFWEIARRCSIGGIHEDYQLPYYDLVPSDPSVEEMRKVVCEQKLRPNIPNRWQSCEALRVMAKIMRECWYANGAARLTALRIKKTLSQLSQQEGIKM
Nature of the assay: Biochemical ALK5 (TGF-βR1) assay to measure pKi (LANCE Ultra ULight kinase assay). As to conditions: apparent pKi, converted from pIC50 by Cheng-Prusoff. Put shortly:
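Dose-response series of each compound were preincubated with the kinase for 60 minutes at room temperature. Phosphorylation proceeded for 60 minutes at 37 °C after ATP addition, was quenched with EDTA, and was detected with a europium anti-phospho-Thr1342 antibody by TR-FRET; pKi was calculated from pIC50.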

For the molecule `COCCn1cc(-c2ccc(Nc3nccc(Nc4ccnc(-c5cccc(C)n5)n4)n3)cc2)cn1` [Compound 169, N2-[4-[1-(2-methoxyethyl)pyrazol-4-yl]phenyl]-N4-[2-(6-methyl-2-pyridyl)pyrimidin-4-yl]pyrimidine-2,4-diamine], the IC50 in assay [1] was 25.1 to 158 nM. The Ki in assay [2] is 0.398 to 3.16 nM.

Take `Cc1ccc(Nc2nccc(Nc3ccnc(-c4cccc(C)n4)n3)n2)cc1` [Compound 170, N4-[2-(6-methyl-2-pyridyl)pyrimidin-4-yl]-N2-(p-tolyl)pyrimidine-2,4-diamine]: the IC50 in assay [1] was 25.1 to 158 nM. In assay [2], the Ki was 0.398 to 3.16 nM.

As for `COC(=O)C1CN(CCNc2ccc(Nc3nccc(Nc4ccnc(-c5cccc(C)n5)n4)n3)cc2)CCN1C(C)C` (stereo not drawn) [Compound 171, methyl 1-isopropyl-4-[2-[4-[[4-[[2-(6-methyl-2-pyridyl)pyrimidin-4-yl]amino]pyrimidin-2-yl]amino]anilino]ethyl] piperazine-2-carboxylate], the IC50 in assay [1] was 25.1 to 158 nM. In assay [2], the Ki was 0.398 to 3.16 nM.

Consider `COC(=O)[C@H]1CN(c2ccc(Nc3nccc(Nc4ccnc(-c5cccc(C)n5)n4)n3)cc2)CCN1` [Compound 172, methyl (2R)-4-[4-[[4-[[2-(6-methyl-2-pyridyl)pyrimidin-4-yl]amino]pyrimidin-2-yl]amino]phenyl]piperazine-2-carboxylate], for which the IC50 in assay [1] was 25.1 to 158 nM. The Ki in assay [2] is 0.0398 to 0.316 nM.

As to `Cc1cccc(-c2nccc(Nc3ccnc(Nc4ccc(N5CCCC(C(=O)OC6CNC6)C5)cc4)n3)n2)n1` (stereo not drawn) [Compound 173, azetidin-3-yl 1-[4-[[4-[[2-(6-methyl-2-pyridyl)pyrimidin-4-yl]amino]pyrimidin-2-yl]amino]phenyl]piperidine-3-carboxylate], the IC50 in assay [1] was 25.1 to 158 nM. Also, in assay [2], the Ki was 0.0398 to 0.316 nM.

As to `Cc1cccc(-c2nccc(Nc3ccnc(Nc4ccc(CN5CC(C(=O)O[C@H]6CCNC6)C5)cc4)n3)n2)n1` [Compound 174, [(3S)-pyrrolidin-3-yl] 1-[[4-[[4-[[2-(6-methyl-2-pyridyl)pyrimidin-4-yl]amino]pyrimidin-2-yl]amino]phenyl]methyl] azetidine-3-carboxylate], in assay [1], the IC50 is 25.1 to 158 nM. For the same molecule, the Ki in assay [2] is 0.0398 to 0.316 nM.

On to `Cc1cccc(-c2nccc(Nc3ccnc(Nc4ccc5c(c4)CNCC5)n3)n2)n1` [Compound 175, N4-(2-(6-methylpyridin-2-yl)pyrimidin-4-yl)-N2-(1,2,3,4-tetrahydroisoquinolin-7-yl)pyrimidine-2,4-diamine], for which, in assay [1], the IC50 was 25.1 to 158 nM. The Ki in assay [2] was no more than 0.0316 nM.

Regarding `CNC1CCN(S(=O)(=O)c2cccc(Nc3nccc(Nc4ccnc(-c5cccc(C)n5)n4)n3)c2)CC1` [Compound 176, N2-[3-[[4-(methylamino)-1-piperidyl]sulfonyl]phenyl]-N4-[2-(6-methyl-2-pyridyl)pyrimidin-4-yl]pyrimidine-2,4-diamine], the IC50 in assay [1] is 25.1 to 158 nM. Moreover, the Ki in assay [2] was 0.398 to 3.16 nM.

Consider `Cc1cccc(-c2nccc(Nc3ccnc(Nc4ccc(CN5CC6CCCC(C5)N6)cc4)n3)n2)n1` [Compound 177, N2-[4-(3,9-diazabicyclo[3.3.1]nonan-3-ylmethyl)phenyl]-N4-[2-(6-methyl-2-pyridyl)pyrimidin-4-yl]pyrimidine-2,4-diamine], for which, in assay [1], the IC50 is 25.1 to 158 nM. Also, in assay [2], the Ki was 0.0398 to 0.316 nM.

Regarding `Cc1cccc(-c2nccc(Nc3ccnc(Nc4cccc(C(=O)OCC5CNC5)c4)n3)n2)n1` [Compound 178, azetidin-3-ylmethyl 3-((4-((2-(6-methylpyridin-2-yl)pyrimidin-4-yl)amino)pyrimidin-2-yl)amino)benzoate], in assay [1], the IC50 was 25.1 to 158 nM. Moreover, the Ki in assay [2] is 0.398 to 3.16 nM.

Consider `Cc1ccc(O)cc1-c1nccc(Nc2ccnc(Nc3ccc(N4CCNCC4)cc3)n2)n1` [Compound 179, 4-methyl-3-[4-[[2-(4-piperazin-1-ylanilino)pyrimidin-4-yl]amino]pyrimidin-2-yl]phenol], for which the IC50 in assay [1] is 25.1 to 158 nM. In addition, the Ki in assay [2] is 0.398 to 3.16 nM.

In the case of `Cc1cccc(-c2nccc(Nc3ccnc(Nc4ccc(NC(=O)C5(O)CNC5)cc4)n3)n2)n1` [Compound 180, 3-hydroxy-N-[4-[[4-[[2-(6-methyl-2-pyridyl)pyrimidin-4-yl]amino]pyrimidin-2-yl]amino]phenyl]azetidine-3-carboxamide], in assay [1], the IC50 was 25.1 to 158 nM. For the same molecule, the Ki in assay [2] is 0.0398 to 0.316 nM.

For `Cc1cccc(-c2nccc(Nc3ccnc(Nc4cnn(CC5CNC5)c4)n3)n2)n1` [Compound 181, N2-[1-(azetidin-3-ylmethyl)pyrazol-4-yl]-N4-[2-(6-methyl-2-pyridyl)pyrimidin-4-yl]pyrimidine-2,4-diamine], the IC50 in assay [1] is 200 to 1260 nM. In assay [2], the Ki was 0.0398 to 0.316 nM.

With `Cc1cccc(-c2nccc(Nc3ccnc(Nc4ccc(CN5CCC[C@@H](C(=O)OCC6CN(C)C6)C5)cc4)n3)n2)n1` [Compound 182, (1-methylazetidin-3-yl)methyl (3R)-1-[[4-[[4-[[2-(6-methyl-2-pyridyl)pyrimidin-4-yl]amino]pyrimidin-2-yl]amino]phenyl]methyl] piperidine-3-carboxylate], in assay [1], the IC50 is 25.1 to 158 nM. Also, the Ki in assay [2] was 0.0398 to 0.316 nM.

As to `Cc1cccc(-c2nccc(Nc3ccnc(Nc4ccc(CN5CCN[C@@H](CO)C5)cc4)n3)n2)n1` [Compound 183, [(2R)-4-[[4-[[4-[[2-(6-methyl-2-pyridyl)pyrimidin-4-yl]amino]pyrimidin-2-yl]amino]phenyl]methyl]piperazin-2-yl]methanol], in assay [1], the IC50 is 25.1 to 158 nM. For the same molecule, the Ki in assay [2] was 0.0398 to 0.316 nM.

As for `Cc1cccc(-c2nccc(Nc3ccnc(Nc4cc(F)c(NC(=O)C5CCNCC5)c(Cl)c4)n3)n2)n1` [Compound 184, N-[2-chloro-6-fluoro-4-[[4-[[2-(6-methyl-2-pyridyl)pyrimidin-4-yl]amino]pyrimidin-2-yl]amino]phenyl]piperidine-4-carboxamide], the IC50 in assay [1] is 25.1 to 158 nM. The Ki in assay [2] was 0.0398 to 0.316 nM.

On to `Cc1cccc(-c2nccc(Nc3ccnc(Nc4ccc(N5CCC(C(=O)O[C@H]6CCNC6)CC5)cc4)n3)n2)n1` [Compound 185, [(3S)-pyrrolidin-3-yl] 1-[4-[[4-[[2-(6-methyl-2-pyridyl)pyrimidin-4-yl]amino]pyrimidin-2-yl]amino]phenyl]piperidine-4-carboxylate], for which, in assay [1], the IC50 is 25.1 to 158 nM. In addition, in assay [2], the Ki is 0.0398 to 0.316 nM.

As to `Cc1cccc(-c2nccc(Nc3ccnc(Nc4ccc(N5CC(CN)C5)cc4)n3)n2)n1` [Compound 186, N2-[4-[3-(aminomethyl)azetidin-1-yl]phenyl]-N4-[2-(6-methyl-2-pyridyl)pyrimidin-4-yl]pyrimidine-2,4-diamine], in assay [1], the IC50 was 25.1 to 158 nM. The Ki in assay [2] was 0.0398 to 0.316 nM.

On to `Cc1cccc(-c2nccc(Nc3ccnc(Nc4ccc(CN)cc4)n3)n2)n1` [Compound 187, N2-[4-(aminomethyl)phenyl]-N4-[2-(6-methyl-2-pyridyl)pyrimidin-4-yl]pyrimidine-2,4-diamine], for which, in assay [1], the IC50 was 25.1 to 158 nM. For the same molecule, the Ki in assay [2] is 0.0398 to 0.316 nM.

Regarding `Cc1cccc(-c2nccc(Nc3ccnc(Nc4csc(C(=O)N5CCNCC5)c4)n3)n2)n1` [Compound 188, [4-[[4-[[2-(6-methyl-2-pyridyl)pyrimidin-4-yl]amino]pyrimidin-2-yl]amino]-2-thienyl]-piperazin-1-yl-methanone], the IC50 in assay [1] was 25.1 to 158 nM. Besides, in assay [2], the Ki was no more than 0.0316 nM.

Take `Cc1cccc(-c2nccc(Nc3ccnc(Nc4ccc(N5CCN(C(C)C)CC5)cc4)n3)n2)n1` [Compound 189, N2-[4-(4-isopropylpiperazin-1-yl)phenyl]-N4-[2-(6-methyl-2-pyridyl)pyrimidin-4-yl]pyrimidine-2,4-diamine]: the IC50 in assay [1] was 25.1 to 158 nM. The Ki in assay [2] was no more than 0.0316 nM.

Consider `CC(=O)N1CCN(c2cccc(Nc3nccc(Nc4ccnc(-c5cccc(C)n5)n4)n3)c2)CC1` [Compound 190, 1-[4-[3-[[4-[[2-(6-methyl-2-pyridyl)pyrimidin-4-yl]amino]pyrimidin-2-yl]amino]phenyl]piperazin-1-yl]ethanone], for which, in assay [1], the IC50 was 25.1 to 158 nM. In addition, the Ki in assay [2] is 0.0398 to 0.316 nM.

On to `Cc1cccc(-c2nccc(Nc3ccnc(Nc4cc(N)c5c(c4)OCCO5)n3)n2)n1` [Compound 191, N2-(5-amino-2,3-dihydro-1,4-benzodioxin-7-yl)-N4-[2-(6-methyl-2-pyridyl)pyrimidin-4-yl]pyrimidine-2,4-diamine], for which, in assay [1], the IC50 was 25.1 to 158 nM. The Ki in assay [2] is 0.398 to 3.16 nM.

For the molecule `Cc1cccc(-c2nccc(Nc3ccnc(Nc4ccc(C5=CCNCC5)cc4)n3)n2)n1` [Compound 193, N4-[2-(6-methyl-2-pyridyl)pyrimidin-4-yl]-N2-[4-(1,2,3,6-tetrahydropyridin-4-yl)phenyl]pyrimidine-2,4-diamine], the IC50 in assay [1] was no more than 20 nM. In assay [2], the Ki was 0.0398 to 0.316 nM.
